The text below walks through data of PubChem BioAssay AID1259407 (Chemical Carcinogenesis Research Information System (CCRIS), 2018).

In this series the test system is CCRIS mutagenicity, Ames/micronucleus/aberration tests. Put plainly: CCRIS mutagenicity studies.
The mark [1] stands for this setting: Test System: AMES SALMONELLA TYPHIMURIUM, Strain/Indicator: TA97, Metabolic Activation: NONE, Method: STANDARD PLATE.
Setting [2] is: Test System: AMES SALMONELLA TYPHIMURIUM, Strain/Indicator: TA98, Metabolic Activation: NONE, Method: STANDARD PLATE.
Setting [3] is: Test System: AMES SALMONELLA TYPHIMURIUM, Strain/Indicator: TA98, Metabolic Activation: RAT, LIVER, S-9, AROCLOR 1254, Method: STANDARD PLATE.
The mark [4] stands for this setting: Test System: AMES SALMONELLA TYPHIMURIUM, Strain/Indicator: TA100, Metabolic Activation: NONE, Method: STANDARD PLATE.
Setting [5] is: Test System: AMES SALMONELLA TYPHIMURIUM, Strain/Indicator: TA1535, Metabolic Activation: NONE, Method: STANDARD PLATE.
Setting [6] is: Test System: AMES SALMONELLA TYPHIMURIUM, Strain/Indicator: TA1538, Metabolic Activation: NONE, Method: STANDARD PLATE.

The source made the active and inactive calls. No rule for the calls is given here.

Consider `COc1cc2c(CCNC(C)=O)c[nH]c2cc1O`, for which the mutagenic call under setting [1] was “inactive; negative”; the mutagenic call (Test System: AMES SALMONELLA TYPHIMURIUM, Strain/Indicator: TA97, Metabolic Activation: RAT, LIVER, S-9, AROCLOR 1254, Method: STANDARD PLATE) is “inactive; negative”; the mutagenic call under setting [2] was “inactive; negative”; the mutagenic call under setting [3] is “inactive; negative”; the mutagenic call under setting [4] was “inactive; negative”; the mutagenic call (Test System: AMES SALMONELLA TYPHIMURIUM, Strain/Indicator: TA100, Metabolic Activation: RAT, LIVER, S-9, AROCLOR 1254, Method: STANDARD PLATE) was “inactive; negative”.
As to `COc1cccc2c1C(=O)c1c(O)c3c(c(O)c1C2=O)C[C@@](O)(C(C)=O)C[C@@H]3O[C@H]1C[C@H](N)[C@H](O)[C@H](C)O1`, the mutagenic call was “active; positive (p<0.001)” (End Point: In vitro micronucleus, Test System: Human lymphoblastoid TK6 cells, Metabolic Activation: None); “active; positive” (Test System: AMES SALMONELLA TYPHIMURIUM, Strain/Indicator: GW257, Metabolic Activation: NONE, Method: STANDARD PLATE); “inactive; negative” under setting [1]; “active; positive” (Test System: AMES SALMONELLA TYPHIMURIUM, Strain/Indicator: TA98, Metabolic Activation: NONE, Method: PREINCUBATION); “active; positive” under setting [2]; “active; positive” under setting [3]. Further, the mutagenic call by setting is: (Test System: AMES SALMONELLA TYPHIMURIUM, Strain/Indicator: TA98, Metabolic Activation: RAT, LIVER, S-9, KC500 OR PHENOBARBITAL, Method: LIQUID SUSPENSION) “active; positive”; under setting [4], “active; positive”; (Test System: AMES SALMONELLA TYPHIMURIUM, Strain/Indicator: TA100, Metabolic Activation: RAT, LIVER, S-9, KC500 OR PHENOBARBITAL, Method: LIQUID SUSPENSION) “active; positive”; (Test System: AMES SALMONELLA TYPHIMURIUM, Strain/Indicator: TA102, Metabolic Activation: NONE, Method: STANDARD PLATE) “active; positive”; (Test System: AMES SALMONELLA TYPHIMURIUM, Strain/Indicator: TA104, Metabolic Activation: NONE, Method: STANDARD PLATE) “inactive; negative”; under setting [5], “inactive; negative”. Also, the mutagenic call under setting [6] was “active; positive”; the mutagenic call (Test System: AMES SALMONELLA TYPHIMURIUM, Strain/Indicator: TA1978/PKM101, Metabolic Activation: NONE, Method: STANDARD PLATE) is “active; positive”; the mutagenic call (Test System: AMES SALMONELLA TYPHIMURIUM, Strain/Indicator: TA1978, Metabolic Activation: NONE, Method: STANDARD PLATE) is “inactive; negative”; the mutagenic call (Test System: AMES SALMONELLA TYPHIMURIUM, Strain/Indicator: TA2637, Metabolic Activation: NONE, Method: STANDARD PLATE) is “active; positive”; the mutagenic call (Test System: AMES SALMONELLA TYPHIMURIUM, Strain/Indicator: TA2638, Metabolic Activation: NONE, Method: STANDARD PLATE) was “active; positive”; the mutagenic call (Test System: CHINESE HAMSTER V-79, Strain/Indicator: V-79/6-THIOGUANINE, Metabolic Activation: NONE, Method: SUSPENSION/PLATE) was “inactive; negative”. For the same molecule, the mutagenic call by setting is: (Test System: CHINESE HAMSTER V-79, Strain/Indicator: V-79/6-THIOGUANINE, Metabolic Activation: RAT, LIVER, HOMOGENATE, Method: SUSPENSION/PLATE) “inactive; negative”; (Test System: CHINESE HAMSTER V-79, Strain/Indicator: V-79/8-AZAGUANINE, Metabolic Activation: NONE, Method: STANDARD PLATE) “active; positive”; (Test System: E. COLI, Strain/Indicator: WP2 (HCR), Metabolic Activation: NONE, Method: STANDARD PLATE) “inactive; negative”; (Test System: E. COLI, Strain/Indicator: WP2 (PKM101), Metabolic Activation: NONE, Method: STANDARD PLATE) “active; positive”; (Test System: E. COLI, Strain/Indicator: WP2 UVRA (PKM101), Metabolic Activation: NONE, Method: STANDARD PLATE) “active; positive”; (Test System: UDS RAT HEPATOCYTES, Strain/Indicator: THY INCORP, Metabolic Activation: NONE, Method: AUTOMATIC COLONY COUNTER) “active; positive”.
As for `NNC(=O)NC(=O)NN`, the mutagenic call (Test System: E. COLI WP2, Strain/Indicator: WP2, Metabolic Activation: NONE, Method: STANDARD PLATE) was “active; positive”.
Consider `c1ccc(-c2ccc(OCC3CO3)cc2)cc1` (stereo unspecified), for which the mutagenic call is, setting by setting: under setting [4], “active; positive”; under setting [5], “active; positive”.
On to `Cc1ccc(N=NN(C)C)cc1`, for which the mutagenic call is, setting by setting: (Test System: AMES SALMONELLA TYPHIMURIUM, Strain/Indicator: TA92, Metabolic Activation: MOUSE, LIVER, S-9, POLYCHLORINATED BIPHENYLS, Method: PREINCUBATION) “inactive; negative”; (Test System: AMES SALMONELLA TYPHIMURIUM, Strain/Indicator: TA92, Metabolic Activation: MOUSE, LIVER, S-9, POLYCHLORINATED BIPHENYLS, Method: STANDARD PLATE) “inactive; negative”; (Test System: AMES SALMONELLA TYPHIMURIUM, Strain/Indicator: TA92, Metabolic Activation: NONE, Method: STANDARD PLATE) “inactive; negative”; (Test System: AMES SALMONELLA TYPHIMURIUM, Strain/Indicator: TA97, Metabolic Activation: MOUSE, LIVER, S-9, POLYCHLORINATED BIPHENYLS, Method: PREINCUBATION) “inactive; negative”; (Test System: AMES SALMONELLA TYPHIMURIUM, Strain/Indicator: TA97, Metabolic Activation: MOUSE, LIVER, S-9, POLYCHLORINATED BIPHENYLS, Method: STANDARD PLATE) “inactive; negative”; under setting [1], “active; positive”. Further, the mutagenic call runs as follows: (Test System: AMES SALMONELLA TYPHIMURIUM, Strain/Indicator: TA98, Metabolic Activation: MOUSE, LIVER, S-9, POLYCHLORINATED BIPHENYLS, Method: PREINCUBATION) “inactive; negative”; (Test System: AMES SALMONELLA TYPHIMURIUM, Strain/Indicator: TA98, Metabolic Activation: MOUSE, LIVER, S-9, POLYCHLORINATED BIPHENYLS, Method: STANDARD PLATE) “active; positive”; under setting [2], “active; positive”; (Test System: AMES SALMONELLA TYPHIMURIUM, Strain/Indicator: TA100, Metabolic Activation: MOUSE, LIVER, S-9, POLYCHLORINATED BIPHENYLS, Method: PREINCUBATION) “inactive; negative”; (Test System: AMES SALMONELLA TYPHIMURIUM, Strain/Indicator: TA100, Metabolic Activation: MOUSE, LIVER, S-9, POLYCHLORINATED BIPHENYLS, Method: STANDARD PLATE) “inactive; negative”; under setting [4], “inactive; negative”. The mutagenic call (Test System: AMES SALMONELLA TYPHIMURIUM, Strain/Indicator: TA1535, Metabolic Activation: MOUSE, LIVER, S-9, POLYCHLORINATED BIPHENYLS, Method: PREINCUBATION) is “inactive; negative”; the mutagenic call (Test System: AMES SALMONELLA TYPHIMURIUM, Strain/Indicator: TA1535, Metabolic Activation: MOUSE, LIVER, S-9, POLYCHLORINATED BIPHENYLS, Method: STANDARD PLATE) is “inactive; negative”; the mutagenic call under setting [5] is “inactive; negative”; the mutagenic call (Test System: AMES SALMONELLA TYPHIMURIUM, Strain/Indicator: TA1537, Metabolic Activation: MOUSE, LIVER, S-9, POLYCHLORINATED BIPHENYLS, Method: PREINCUBATION) was “active; positive”; the mutagenic call (Test System: AMES SALMONELLA TYPHIMURIUM, Strain/Indicator: TA1537, Metabolic Activation: MOUSE, LIVER, S-9, POLYCHLORINATED BIPHENYLS, Method: STANDARD PLATE) is “active; positive”; the mutagenic call (Test System: AMES SALMONELLA TYPHIMURIUM, Strain/Indicator: TA1537, Metabolic Activation: NONE, Method: STANDARD PLATE) was “active; positive”. For the same molecule, the mutagenic call is “active; positive” (Test System: AMES SALMONELLA TYPHIMURIUM, Strain/Indicator: TA1538, Metabolic Activation: MOUSE, LIVER, S-9, POLYCHLORINATED BIPHENYLS, Method: PREINCUBATION); “active; positive” (Test System: AMES SALMONELLA TYPHIMURIUM, Strain/Indicator: TA1538, Metabolic Activation: MOUSE, LIVER, S-9, POLYCHLORINATED BIPHENYLS, Method: STANDARD PLATE); “active; positive” under setting [6].
In the case of `CN(C)c1ccc(N=Nc2ccc(C=O)cc2)cc1`, the mutagenic call reads like this: (Test System: AMES SALMONELLA TYPHIMURIUM, Strain/Indicator: TA98, Metabolic Activation: RAT, LIVER, S-9, POLYCHLORINATED BIPHENYLS, Method: PREINCUBATION) “active; positive”; (Test System: AMES SALMONELLA TYPHIMURIUM, Strain/Indicator: TA100, Metabolic Activation: RAT, LIVER, S-9, POLYCHLORINATED BIPHENYLS, Method: PREINCUBATION) “active; positive”.
